Laboratory results as given in patent US4882349A, “Pyrrolacetic amides having antiinflammatory activity” (priority 1982, dated 1989).

Legend:
[1] = tested on: carrageenin-induced oedema; assay: carrageenin-induced oedema test (anti-inflammatory activity); format: in vivo, albino male Wistar rats
[2] = tested on: phenyl-p-quinone-induced writhing (abdominal contractions); assay: phenylquinone-induced writhing test (analgesic activity), compound given 30 min before phenyl-p-quinone; format: in vivo, male Wistar rats
Method: Male Wistar rats weighing 110±5 g were caged for 10 days at 22±1° C. and given a balanced diet with free access to water. Twenty-four hours before the experiment the animals were randomized into groups of 10 and fasted for 14 hours but with free access to water. Each dose was tested in 3 groups of rats. Thirty minutes following administration either orally or parenterally of the products to be tested and the vehicle alone (0.5% carboxymethyl-cellulose in physiological saline) in the control animals, each rat was given 2 ml of a 5% absolute ethanol aqueous solution containing 0.36% of phenyl-p-quinone (Sigma Chemical Company) in order to provoke writhings. Fifteen minutes after administration of phenyl-p-quinone the number of contractions were counted for 20 minutes. The inhibiting effect of the compounds under examination on the abdominal contractions induced by phenyl-p-quinone was calculated by the following formula: % protection= [formula]
Table V lists the tested compounds, doses, routes of administration and their efficacy expressed as percentage of protection, taking into account that phenyl-p-quinone was administered thirty minutes after the compounds.

[3] = tested on: cough provoked by mechanical stimulation of the tracheal bifurcation mucosa; assay: antitussive activity, mechanically provoked coughing; format: in vivo, albino Guinea-pigs; details: 1 h after administration
Method: The antitussive effect on albino Guinea-pigs weighing 300 g was evaluated using the method described by Y. Kase (Selected Pharmacological Testing Methods, p.363, Marcel Dekker Inc., New York, 1968). Each dose was tested in a group of animals with a Y cannula inserted into the trachea. In order to provoke coughing, the mucosa of the tracheal bifurcation was mechanically stimulated by insertion of a wild boar's hair through an opening in the cannula, while the other opening was connected to a kymograph to plot the amplitude and/or frequency. The reduction in the number of coughs was evaluated at one hour after administration of the compounds under examination by following the plottings for twenty minutes and comparing the response of the control animals.

[4] = tested on: mucus secreted by the respiratory airway; assay: antisecretory activity, respiratory mucus secretion; format: in vivo, albino male New Zealand rabbits; details: vs control group
Method: The experiment was carried out in accordance with the method described by Y. Kase (Folia Pharmacol. Jap. 73: 605, 1977) for the purpose of investigating whether or not the compounds under examination determine changes in the volume of the mucus secreted by the respiratory airway. Groups of four albino male New Zealand rabbits (mean weight: 2.5 kg) were used for testing each dose per single group. The animals were anesthetized with urethane (1.1 g/ks b.w.) via the intraperitoneal route and a Y cannula was inserted into the trachea. In order to stimulate mucous secretion a humidifier was connected to the cannula permitting the animals to spontaneously breathe air with 100% humidity at a constant temperature of 39° C. The secreted mucus was collected through another opening in the cannula and measured at three and six hours after administration of the compounds under examination or of the vehicle alone administered in the order of […] (controls). Calculation of the increase or decrease in mucous secretion was based upon the percentage differences between the groups treated with the compounds under examination and the control group. Table VII gives the percentage differences in mucous secretion, and the tested compounds with relative doses and routes of administration.

## COc1ccccc1OC(=O)CNC(=O)Cc1ccc(C(=O)c2ccc(C)cc2)n1C [Compound 1-d, 1-methyl-5-p-toluoylpyrrole-2-acetamidoacetic acid guaiacyl ester]
[1]; 2.5 mg/Kg per os, 2 h
  oedema % inhibition: 50.0%
[1]; 2.5 mg/Kg per os, 4 h
  oedema % inhibition: 34.6%
[1]; 2.5 mg/Kg per os, 6 h
  oedema % inhibition: 23.1%
[1]; 2.5 mg/Kg per os, 24 h
  oedema % inhibition: 0.0%
[1]; 2.5 mg/Kg per os, 48 h
  oedema % inhibition: 0.0%
[1]; 2.5 mg/Kg per os, 72 h
  oedema % inhibition: 0.0%
[1]; 2.5 mg/Kg, Table IV (route not given), 2 h
  oedema % inhibition: 52.3%
[1]; 2.5 mg/Kg, Table IV (route not given), 4 h
  oedema % inhibition: 37.0%
[1]; 2.5 mg/Kg, Table IV (route not given), 6 h
  oedema % inhibition: 26.0%
[1]; 2.5 mg/Kg, Table IV (route not given), 24 h
  oedema % inhibition: 14.0%
[1]; 2.5 mg/Kg, Table IV (route not given), 48 h
  oedema % inhibition: 0.0%
[1]; 2.5 mg/Kg, Table IV (route not given), 72 h
  oedema % inhibition: 0.0%
[1]; 5 mg/Kg per os, 2 h
  oedema % inhibition: 51.4%
[1]; 5 mg/Kg per os, 4 h
  oedema % inhibition: 38.8%
[1]; 5 mg/Kg per os, 6 h
  oedema % inhibition: 24.0%
[1]; 5 mg/Kg per os, 24 h
  oedema % inhibition: 10.0%
[1]; 5 mg/Kg per os, 48 h
  oedema % inhibition: 10.0%
[1]; 5 mg/Kg per os, 72 h
  oedema % inhibition: 6.0%
[1]; 5 mg/Kg, Table IV (route not given), 2 h
  oedema % inhibition: 54.0%
[1]; 5 mg/Kg, Table IV (route not given), 4 h
  oedema % inhibition: 40.0%
[1]; 5 mg/Kg, Table IV (route not given), 6 h
  oedema % inhibition: 24.6%
[1]; 5 mg/Kg, Table IV (route not given), 24 h
  oedema % inhibition: 10.1%
[1]; 5 mg/Kg, Table IV (route not given), 48 h
  oedema % inhibition: 0.0%
[1]; 5 mg/Kg, Table IV (route not given), 72 h
  oedema % inhibition: 0.0%
[1]; 10 mg/Kg per os, 2 h
  oedema % inhibition: 61.5%
[1]; 10 mg/Kg per os, 4 h
  oedema % inhibition: 41.2%
[1]; 10 mg/Kg per os, 6 h
  oedema % inhibition: 34.9%
[1]; 10 mg/Kg per os, 24 h
  oedema % inhibition: 12.6%
[1]; 10 mg/Kg per os, 48 h
  oedema % inhibition: 14.0%
[1]; 10 mg/Kg per os, 72 h
  oedema % inhibition: 9.0%
[1]; 10 mg/Kg, Table IV (route not given), 2 h
  oedema % inhibition: 60.0%
[1]; 10 mg/Kg, Table IV (route not given), 4 h
  oedema % inhibition: 46.9%
[1]; 10 mg/Kg, Table IV (route not given), 6 h
  oedema % inhibition: 36.7%
[1]; 10 mg/Kg, Table IV (route not given), 24 h
  oedema % inhibition: 16.5%
[1]; 10 mg/Kg, Table IV (route not given), 48 h
  oedema % inhibition: 6.3%
[1]; 10 mg/Kg, Table IV (route not given), 72 h
  oedema % inhibition: 0.0%
[1]; 20 mg/Kg per os, 2 h
  oedema % inhibition: 62.1%
[1]; 20 mg/Kg per os, 4 h
  oedema % inhibition: 48.7%
[1]; 20 mg/Kg per os, 6 h
  oedema % inhibition: 32.8%
[1]; 20 mg/Kg per os, 24 h
  oedema % inhibition: 26.6%
[1]; 20 mg/Kg per os, 48 h
  oedema % inhibition: 25.9%
[1]; 20 mg/Kg per os, 72 h
  oedema % inhibition: 3.3%
[1]; 20 mg/Kg, Table IV (route not given), 2 h
  oedema % inhibition: 65.0%
[1]; 20 mg/Kg, Table IV (route not given), 4 h
  oedema % inhibition: 50.4%
[1]; 20 mg/Kg, Table IV (route not given), 6 h
  oedema % inhibition: 48.6%
[1]; 20 mg/Kg, Table IV (route not given), 24 h
  oedema % inhibition: 23.5%
[1]; 20 mg/Kg, Table IV (route not given), 48 h
  oedema % inhibition: 9.1%
[1]; 20 mg/Kg, Table IV (route not given), 72 h
  oedema % inhibition: 8.4%
[1]; 50 mg/Kg per os, 2 h
  oedema % inhibition: 66.9%
[1]; 50 mg/Kg per os, 4 h
  oedema % inhibition: 66.8%
[1]; 50 mg/Kg per os, 6 h
  oedema % inhibition: 57.8%
[1]; 50 mg/Kg per os, 24 h
  oedema % inhibition: 30.9%
[1]; 50 mg/Kg per os, 48 h
  oedema % inhibition: 36.3%
[1]; 50 mg/Kg per os, 72 h
  oedema % inhibition: 38.6%
[1]; 50 mg/Kg, Table IV (route not given), 2 h
  oedema % inhibition: 69.7%
[1]; 50 mg/Kg, Table IV (route not given), 4 h
  oedema % inhibition: 74.0%
[1]; 50 mg/Kg, Table IV (route not given), 6 h
  oedema % inhibition: 67.2%
[1]; 50 mg/Kg, Table IV (route not given), 24 h
  oedema % inhibition: 34.5%
[1]; 50 mg/Kg, Table IV (route not given), 48 h
  oedema % inhibition: 20.8%
[1]; 50 mg/Kg, Table IV (route not given), 72 h
  oedema % inhibition: 15.3%
[1]; 100 mg/Kg per os, 2 h
  oedema % inhibition: 68.0%
[1]; 100 mg/Kg per os, 4 h
  oedema % inhibition: 74.0%
[1]; 100 mg/Kg per os, 6 h
  oedema % inhibition: 67.5%
[1]; 100 mg/Kg per os, 24 h
  oedema % inhibition: 40.3%
[1]; 100 mg/Kg per os, 48 h
  oedema % inhibition: 38.0%
[1]; 100 mg/Kg per os, 72 h
  oedema % inhibition: 33.0%
[1]; 100 mg/Kg, Table IV (route not given), 2 h
  oedema % inhibition: 76.5%
[1]; 100 mg/Kg, Table IV (route not given), 4 h
  oedema % inhibition: 79.5%
[1]; 100 mg/Kg, Table IV (route not given), 6 h
  oedema % inhibition: 73.4%
[1]; 100 mg/Kg, Table IV (route not given), 24 h
  oedema % inhibition: 42.4%
[1]; 100 mg/Kg, Table IV (route not given), 48 h
  oedema % inhibition: 33.0%
[1]; 100 mg/Kg, Table IV (route not given), 72 h
  oedema % inhibition: 31.6%
[2]; 5 mg/Kg i.p.
  % Protection: 22.1%
[2]; 5 mg/Kg per os
  % Protection: 29.1%
[2]; 10 mg/Kg i.p.
  % Protection: 56.0%
[2]; 10 mg/Kg per os
  % Protection: 53.4%
[2]; 20 mg/Kg i.p.
  % Protection: 87.0%
[2]; 20 mg/Kg per os
  % Protection: 80.2%
[3]; 50 mg/Kg i.p.
  % inhibition, cough amplitude: 12%
  % inhibition, cough frequency: 15%
[3]; 50 mg/Kg per os
  % inhibition, cough amplitude: 10%
  % inhibition, cough frequency: 18%
[3]; 75 mg/Kg i.p.
  % inhibition, cough amplitude: 20%
  % inhibition, cough frequency: 36%
[3]; 75 mg/Kg per os
  % inhibition, cough amplitude: 22%
  % inhibition, cough frequency: 29%
[3]; 100 mg/Kg i.p.
  % inhibition, cough amplitude: 30%
  % inhibition, cough frequency: 45%
[3]; 100 mg/Kg per os
  % inhibition, cough amplitude: 30%
  % inhibition, cough frequency: 49%
[4]; 50 mg/Kg i.p., 3 h
  % difference in mucus secretion: -5%
[4]; 50 mg/Kg i.p., 6 h
  % difference in mucus secretion: -5%
[4]; 50 mg/Kg per os, 3 h
  % difference in mucus secretion: 0.0%
[4]; 50 mg/Kg per os, 6 h
  % difference in mucus secretion: 0.0%
[4]; 75 mg/Kg i.p., 3 h
  % difference in mucus secretion: -18%
[4]; 75 mg/Kg i.p., 6 h
  % difference in mucus secretion: -15%
[4]; 75 mg/Kg per os, 3 h
  % difference in mucus secretion: -15%
[4]; 75 mg/Kg per os, 6 h
  % difference in mucus secretion: -10%
[4]; 100 mg/Kg i.p., 3 h
  % difference in mucus secretion: -38%
[4]; 100 mg/Kg i.p., 6 h
  % difference in mucus secretion: -30%
[4]; 100 mg/Kg per os, 3 h
  % difference in mucus secretion: -32%
[4]; 100 mg/Kg per os, 6 h
  % difference in mucus secretion: -27%
